Source: US20190309272A1, “Genetically Modified Cell Lines Including a TP53 Modification and Methods of Use” (UNIVERSITY OF SOUTH CAROLINA, priority 2018, published 2019)

How the values were obtained:
Type in all cases: cell-based, Human
[1] = system: MCF7 TP53 KO 34 D4; test: Drug treatment of single cell clone KO 34 D4; conditions: ten day drug treatment; also: unit not given here
[2] = system: MCF7 PR WT C7; test: Drug treatment of single cell clone PR WT C7; conditions: ten day drug treatment; also: unit not given here
[3] = system: MCF7 TP53 KO 56 E3; test: Drug treatment of single cell clone KO 56 E3; conditions: ten day drug treatment
[4] = system: MCF7 TP53 KO 3.4 pool; test: Drug screening, resazurin, TP53 KO 3.4 pool; conditions: for area under the curve (AUC): KO 34 Pool, ten day drug treatment (Table 3); for TP53 KO 3.4 pool (AUC): ten-day drug treatment, 156.25 nM to 10 μM, resazurin fluorescence
[5] = system: MCF7 TP53 KO 56 A5; test: Drug treatment of single cell clone KO 56 A5; conditions: ten day drug treatment
[6] = system: MCF7 TP53 KO 56 A6; test: Drug treatment of single cell clone KO 56 A6; conditions: ten day drug treatment
[7] = system: MCF7 TP53 KO 56 C5; test: Drug treatment of single cell clone KO 56 C5; conditions: ten day drug treatment
[8] = system: MCF7 TP53 KO 56 A4; test: Drug treatment of single cell clone KO 56 A4; conditions: ten day drug treatment
[9] = system: MCF7 PR WT B8; test: Drug treatment of single cell clone PR WT B8; conditions: ten day drug treatment; also: unit not given here
[10] = system: MCF7 TP53 KO 56 A8; test: Drug treatment of single cell clone KO 56 A8; conditions: ten day drug treatment
[11] = system: MCF7 TP53 KO 34 E1; test: Drug treatment of single cell clone KO 34 E1; conditions: ten day drug treatment
[12] = system: MCF7 TP53 KO 34 B5; test: Drug treatment of single cell clone KO 34 B5; conditions: ten day drug treatment; also: unit not given here
[13] = system: MCF7 TP53 KO 56 A7; test: Drug treatment of single cell clone KO 56 A7; conditions: ten day drug treatment; also: unit not given here
[14] = system: MCF7 TP53 KO 56 E1; test: Drug treatment of single cell clone KO 56 E1; conditions: ten day drug treatment; also: unit not given here
[15] = system: MCF7 PR WT G2; test: Drug treatment of single cell clone PR WT G2; conditions: ten day drug treatment; also: unit not given here
[16] = system: MCF7 TP53 KO 5.6 pool; test: Drug screening, resazurin, TP53 KO 5.6 pool; conditions: for area under the curve (AUC): KO 56 Pool, ten day drug treatment (Table 3); for TP53 KO 5.6 pool (AUC): ten-day drug treatment, 156.25 nM to 10 μM, resazurin fluorescence
[17] = system: MCF7 WT Parental pool; test: Drug screening, resazurin, MCF7 wild type parental pool; conditions: for area under the curve (AUC): PR WT Pool, ten day drug treatment (Table 3); for MCF7 WT Parental pool (AUC): ten-day drug treatment, 156.25 nM to 10 μM, resazurin fluorescence
[18] = system: MCF7 PR WT A8; test: Drug treatment of single cell clone PR WT A8; conditions: ten day drug treatment; also: unit not given here

O=C1[O][Pt]2([NH][C@@H]3CCCC[C@H]3[NH]2)[O]C1=O [Oxaliplatin]
area under the curve (AUC) [1]: 1.392 | area under the curve (AUC) [2]: 0.8311 | area under the curve (AUC) [3]: 0.9635 | area under the curve (AUC) [4]: 1.25 | TP53 KO 3.4 pool (AUC) [4]: 5.272 | area under the curve (AUC) [5]: 1.197 | area under the curve (AUC) [6]: 1.243 | area under the curve (AUC) [7]: 1.239 | area under the curve (AUC) [8]: 1.29 | area under the curve (AUC) [9]: 0.7911 | area under the curve (AUC) [10]: 1.229 | area under the curve (AUC) [11]: 1.46 | area under the curve (AUC) [12]: 0.973 | area under the curve (AUC) [13]: 1.23 | area under the curve (AUC) [14]: 1.208 | area under the curve (AUC) [15]: 0.8186 | area under the curve (AUC) [16]: 1.164 | TP53 KO 5.6 pool (AUC) [16]: 5.118 | area under the curve (AUC) [17]: 0.9557 | MCF7 WT Parental pool (AUC) [17]: 2.372 | area under the curve (AUC) [18]: 0.7779

CC(=O)c1c(C)c2cnc(Nc3ccc(N4CCNCC4)cn3)nc2n(C2CCCC2)c1=O [Palbociclib]
area under the curve (AUC) [1]: 1.826 | area under the curve (AUC) [2]: 2.543 | area under the curve (AUC) [3]: 1.469 | area under the curve (AUC) [4]: 1.88 | TP53 KO 3.4 pool (AUC) [4]: 2.923 | area under the curve (AUC) [5]: 1.647 | area under the curve (AUC) [6]: 1.681 | area under the curve (AUC) [7]: 1.632 | area under the curve (AUC) [8]: 1.846 | area under the curve (AUC) [9]: 1.917 | area under the curve (AUC) [10]: 2.031 | area under the curve (AUC) [11]: 2.274 | area under the curve (AUC) [12]: 1.522 | area under the curve (AUC) [13]: 1.753 | area under the curve (AUC) [14]: 1.497 | area under the curve (AUC) [15]: 2.542 | area under the curve (AUC) [16]: 1.457 | TP53 KO 5.6 pool (AUC) [16]: 3.234 | area under the curve (AUC) [17]: 2.446 | MCF7 WT Parental pool (AUC) [17]: 3.461 | area under the curve (AUC) [18]: 2.127

O=c1[nH]cc(F)c(=O)[nH]1 [Fluorouracil]
area under the curve (AUC) [1]: 1.812 | area under the curve (AUC) [2]: 2.105 | area under the curve (AUC) [3]: 1.645 | area under the curve (AUC) [4]: 1.721 | TP53 KO 3.4 pool (AUC) [4]: 3.782 | area under the curve (AUC) [5]: 1.46 | area under the curve (AUC) [6]: 1.811 | area under the curve (AUC) [7]: 1.826 | area under the curve (AUC) [8]: 1.716 | area under the curve (AUC) [9]: 1.886 | area under the curve (AUC) [10]: 2.02 | area under the curve (AUC) [11]: 1.945 | area under the curve (AUC) [12]: 1.618 | area under the curve (AUC) [13]: 1.81 | area under the curve (AUC) [14]: 1.697 | area under the curve (AUC) [15]: 2.265 | area under the curve (AUC) [16]: 1.745 | TP53 KO 5.6 pool (AUC) [16]: 4.286 | area under the curve (AUC) [17]: 2.156 | MCF7 WT Parental pool (AUC) [17]: 6.548 | area under the curve (AUC) [18]: 2.126
